Measured values published in US20030087316A1, “Diagnostic markers of liver dysfunction” (priority 2001, published 2003).
Entries after “also recorded” stand apart in the source; their conditions may differ. Non-standard residues stand in square brackets, D forms with d. No end group written: not given here. *: point of attachment. pNA = O=[N+]([O-])c1ccc(N*)cc1

Key:
[1] = molecular target: T1, thrombin (Homo sapiens, UniProt P00734); assay: Peptidase (amidolytic) activity of purified thrombin, chromogenic substrate, OD 405 nm; type: biochemical; details: for Cleavage of the substrate by thrombin, in words: enzyme 10 nM, 37° C., 15 min (FIG. 7)
T1 construct: purchased Calbiochem-Novabiochem Corp (La Jolla, Calif.)

[2] = molecular target: T2, C1s (Homo sapiens, UniProt P09871); assay: Peptidase (amidolytic) activity of purified C1s, chromogenic substrate, 96-well plate, OD 405 nm; type: biochemical; details: enzyme 10 nM, 37° C., 15 min (FIG. 7)
T2 construct: purchased Advanced Research Technologies (San Diego, Calif.)
T2 sequence (P09871 438-688 limits assumed): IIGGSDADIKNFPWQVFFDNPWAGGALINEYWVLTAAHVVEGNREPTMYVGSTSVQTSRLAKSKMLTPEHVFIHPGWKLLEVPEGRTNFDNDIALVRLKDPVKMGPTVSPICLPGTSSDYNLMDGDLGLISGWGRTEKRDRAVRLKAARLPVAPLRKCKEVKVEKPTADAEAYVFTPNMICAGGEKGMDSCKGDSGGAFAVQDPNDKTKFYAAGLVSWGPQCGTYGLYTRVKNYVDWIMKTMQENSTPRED
T2 sequence (P09871 16-437 partner limits assumed): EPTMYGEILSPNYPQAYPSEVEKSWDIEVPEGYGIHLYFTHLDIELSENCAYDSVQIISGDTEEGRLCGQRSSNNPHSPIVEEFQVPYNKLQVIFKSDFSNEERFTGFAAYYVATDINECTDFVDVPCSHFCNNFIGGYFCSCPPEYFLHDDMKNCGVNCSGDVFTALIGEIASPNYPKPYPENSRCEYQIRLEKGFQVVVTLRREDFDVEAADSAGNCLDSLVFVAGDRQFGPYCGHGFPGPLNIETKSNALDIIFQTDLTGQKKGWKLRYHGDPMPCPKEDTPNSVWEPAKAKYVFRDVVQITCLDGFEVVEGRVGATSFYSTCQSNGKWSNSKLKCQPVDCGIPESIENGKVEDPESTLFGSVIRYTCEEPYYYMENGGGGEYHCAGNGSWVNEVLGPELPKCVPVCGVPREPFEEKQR

[3] = molecular target: T3, β-Factor XIIa (β-FXIIa) (Homo sapiens, UniProt P00748); assay: Peptidase (amidolytic) activity of purified β-FXIIa, chromogenic substrate, OD 405 nm; type: biochemical; details: for Cleavage of the substrate by β-FXIIa, in words: enzyme 10 nM, 37° C., 15 min (FIG. 7)
T3 construct: β-Factor XIIa (β-FXIIa) was kindly provided by Dr. Mary J. Heeb; gift of Dr. Mary J. Heeb, The Scripps Research Institute
T3 sequence (P00748 373-615 limits assumed, other chains not shown): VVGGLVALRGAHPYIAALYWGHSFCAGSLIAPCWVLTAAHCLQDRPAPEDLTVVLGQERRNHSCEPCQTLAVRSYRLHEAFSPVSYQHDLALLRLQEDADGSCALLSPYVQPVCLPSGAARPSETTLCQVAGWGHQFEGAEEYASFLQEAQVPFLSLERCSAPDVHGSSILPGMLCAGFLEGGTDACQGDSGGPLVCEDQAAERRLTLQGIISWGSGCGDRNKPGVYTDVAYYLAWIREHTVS
Method: (§1) The peptidase activity in plasma samples or of the purified enzymes were routinely determined at 37° C. in a 96-well plate. Each well contained 0.5 mM substrate in 100 μl of Tris-buffered saline (TBS)-EDTA buffer (50 mM Tris/150 mM NaCl/10 mM EDTA, pH 7.8) and the reaction was monitored using a microplate reader (Titertek Multiscan, Labsystems, Needham Heights, Mass.).
(§2) […] EDTA plasma samples from LTR were diluted 10 or 20-fold with TBS-EDTA. The chromogenic substrate AGLTR-pNA was used for all enzymes and LTR samples except C1s where the substrate S2288 was used. Based on the initial rate of increase in OD at 405 nm, the residual free enzyme level was calculated and expressed as a percentage of total activity without inhibitor added.
(§3) Ten-fold diluted normal EDTA plasma was added to each enzyme. […] LTR samples were 10 or 20-fold diluted with TBS-EDTA. The chromogenic substrate AGLTR-pNA was used for all enzymes and LTP samples except C1s where the substrate S2288 was used. Based on the initial rate of increase in OD at 405 nm, the residual free enzyme was calculated and expressed as a percentage of total activity determined without inhibitor added.

[4] = tested on: tissue kallikrein; assay: Peptidase activity of purified tissue kallikrein on chromogenic substrates; type: biochemical; details: enzyme 10 nM, 37° C., 15 min (FIG. 7)
Method: as §1

[5] = molecular target: T4, plasmin (Homo sapiens, UniProt P00747); assay: Peptidase (amidolytic) activity of purified plasmin, chromogenic substrate, OD 405 nm; type: biochemical; details: enzyme 10 nM, 37° C., 15 min (FIG. 7)
T4 construct: purchased Calbiochem-Novabiochem Corp (La Jolla, Calif.)
T4 sequence (P00747 581-810 limits assumed, species assumed): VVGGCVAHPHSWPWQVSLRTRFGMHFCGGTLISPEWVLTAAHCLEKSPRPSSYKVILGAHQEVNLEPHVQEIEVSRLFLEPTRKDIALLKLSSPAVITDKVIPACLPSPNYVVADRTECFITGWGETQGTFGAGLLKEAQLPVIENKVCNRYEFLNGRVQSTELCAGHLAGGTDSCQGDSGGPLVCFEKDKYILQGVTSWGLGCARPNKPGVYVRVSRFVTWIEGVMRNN
T4 sequence (P00747 97-580 partner limits assumed, species assumed): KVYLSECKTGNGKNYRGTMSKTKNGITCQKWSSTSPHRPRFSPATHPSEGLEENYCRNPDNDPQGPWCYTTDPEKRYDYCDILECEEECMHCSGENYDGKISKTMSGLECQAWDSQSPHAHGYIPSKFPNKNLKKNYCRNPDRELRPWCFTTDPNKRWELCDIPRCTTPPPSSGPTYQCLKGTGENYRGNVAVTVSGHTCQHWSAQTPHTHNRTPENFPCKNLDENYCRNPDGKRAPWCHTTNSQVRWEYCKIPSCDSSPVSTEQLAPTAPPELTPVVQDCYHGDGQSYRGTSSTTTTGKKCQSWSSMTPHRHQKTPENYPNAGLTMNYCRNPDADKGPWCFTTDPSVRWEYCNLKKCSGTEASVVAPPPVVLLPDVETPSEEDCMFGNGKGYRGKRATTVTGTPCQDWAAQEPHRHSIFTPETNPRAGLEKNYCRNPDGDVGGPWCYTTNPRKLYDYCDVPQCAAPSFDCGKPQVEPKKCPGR

[6] = tested on: trypsin; assay: Peptidase (amidolytic) activity of purified trypsin, chromogenic substrate, OD 405 nm; type: biochemical; details: enzyme 10 nM, 37° C., 15 min (FIG. 7)
[7] = molecular target: T5, plasma kallikrein (Homo sapiens, UniProt P03952); assay: Peptidase (amidolytic) activity of purified plasma kallikrein, chromogenic substrate, OD 405 nm; type: biochemical; details: for Cleavage of the substrate by plasma kallikrein, in words: enzyme 10 nM, 37° C., 15 min (FIG. 7)
T5 construct: The light chain of kallikrein contains the enzymatic domain; purchased Calbiochem-Novabiochem Corp (La Jolla, Calif.)
T5 sequence (P03952 391-638 limits assumed): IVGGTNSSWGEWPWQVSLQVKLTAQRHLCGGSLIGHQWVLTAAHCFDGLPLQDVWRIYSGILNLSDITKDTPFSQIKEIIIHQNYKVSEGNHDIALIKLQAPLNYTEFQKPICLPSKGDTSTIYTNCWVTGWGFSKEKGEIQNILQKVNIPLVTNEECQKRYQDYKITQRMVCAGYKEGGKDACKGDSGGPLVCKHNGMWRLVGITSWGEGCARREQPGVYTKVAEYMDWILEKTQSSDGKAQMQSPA
T5 sequence (P03952 20-390 partner limits assumed): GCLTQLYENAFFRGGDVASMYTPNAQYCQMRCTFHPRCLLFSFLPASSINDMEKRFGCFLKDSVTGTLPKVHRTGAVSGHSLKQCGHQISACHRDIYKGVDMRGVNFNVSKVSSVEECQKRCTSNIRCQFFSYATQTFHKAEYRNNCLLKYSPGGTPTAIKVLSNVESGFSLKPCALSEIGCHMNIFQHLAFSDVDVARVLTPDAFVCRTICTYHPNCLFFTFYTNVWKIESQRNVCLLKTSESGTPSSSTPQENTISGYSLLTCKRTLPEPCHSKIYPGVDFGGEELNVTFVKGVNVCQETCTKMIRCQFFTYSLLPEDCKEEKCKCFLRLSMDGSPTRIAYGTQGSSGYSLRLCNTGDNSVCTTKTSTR
Method: as §1, §2, §3

[8] = tested on: all of the enzymes examined; assay: General serine proteinase inhibitors on selected proteinases (summary over the enzymes); type: biochemical; details: Table 2; benzamidine 50 mM, Futhan 0.1 mg/ml
Method: as §1
(§4) The enzymes C1s (100 nM), plasm in (100 nM), thrombin (100 nM), plasma kallikrein (20 nM), β-FXIIa (100 nM), trypsin (16 nM) or LTR EDTA plasma samples were incubated for 60 min at 4° C. with TBS-EDTA buffer containing either LBTI (1 mg/ml), SBTI (I mg/ml), aprotinin (0.075 mg/ml), benzamidine (50 mM), or Futhan (0.1 mg/ml), before mixing with the substrate. EDTA plasma samples from LTR were diluted 10 or 20-fold with TBS-EDTA. The chromogenic substrate AGLTR-pNA was used for all enzymes and LTR samples except C1s where the substrate S2288 was used. Based on the initial rate of increase in OD at 405 nm, the residual free enzyme level was calculated and expressed as a percentage of total activity without inhibitor added.

[9] = molecular target: T2, C1s; assay: Peptidase (amidolytic) activity of purified C1s, chromogenic substrate, 96-well plate, OD 405 nm; type: biochemical; details: Table 2; C1s 100 nM, substrate S2288; 60 min at 4° C. with LBTI 1 mg/ml, SBTI I mg/ml, aprotinin 0.075 mg/ml, benzamidine 50 mM or Futhan 0.1 mg/ml; % of total activity without inhibitor
Method: as §1, §4
(§5) Ten-fold diluted normal EDTA plasma was added to each enzyme. The enzymes C1s (100 nM), plasmin (100 nM), thrombin (100 nM), plasma kallikrein (20 nM), β-FXIIa (100 nM), trypsin (16 nM) or LTR EDTA plasma samples were incubated for 60 min at 4° C. with TBS-EDTA buffer containing either C1INH (40 μg/ml), bdellin (50 μg/ml), hirudin (50 U/ml), PPACK 11(10 μM), or CTI (100 μg/ml), before adding the substrate. LTR samples were 10 or 20-fold diluted with TBS-EDTA. The chromogenic substrate AGLTR-pNA was used for all enzymes and LTP samples except C1s where the substrate S2288 was used. Based on the initial rate of increase in OD at 405 nm, the residual free enzyme was calculated and expressed as a percentage of total activity determined without inhibitor added.

[10] = tested on: trypsin; assay: Peptidase (amidolytic) activity of purified trypsin, chromogenic substrate, OD 405 nm; type: biochemical; details: Table 2; trypsin 16 nM, substrate AGLTR-pNA; 60 min at 4° C. with LBTI 1 mg/ml, SBTI I mg/ml, aprotinin 0.075 mg/ml, benzamidine 50 mM or Futhan 0.1 mg/ml
Method: as §1, §4

[11] = tested on: proteinase(s) in EDTA plasma from LTR (kallikrein-like peptidase); assay: Peptidase activity in EDTA plasma from liver transplant recipients (LTR), chromogenic substrate, OD 405 nm; type: biochemical, human; details: Table 2, substrate AGLTR-pNA, 60 min at 4° C. with LBTI 1 mg/ml, SBTI I mg/ml, aprotinin 0.075 mg/ml, benzamidine 50 mM or Futhan 0.1 mg/ml
Method: Blood samples were drawn into 5 ml EDTA tubes (Venoject; Terumo Corp., Elkton, Md.). The plasma was collected immediately by centrifugation at 2,000×g for 15 min at 4° C. The plasma samples were either processed immediately for analysis or stored at −70° C. Frozen samples were thawed at 4° C. prior to analysis.
as §1, §4, §5

[12] = molecular target: T4, plasmin; assay: Peptidase (amidolytic) activity of purified plasmin, chromogenic substrate, OD 405 nm; type: biochemical; details: Table 2; plasmin 100 nM, substrate AGLTR-pNA; 60 min at 4° C. with LBTI 1 mg/ml, SBTI I mg/ml, aprotinin 0.075 mg/ml, benzamidine 50 mM or Futhan 0.1 mg/ml
Method: as §1, §4, §5

[13] = tested on: proteinase(s) in EDTA plasma from LTR (kallikrein-like peptidase); assay: Peptidase activity in EDTA plasma from liver transplant recipients (LTR), chromogenic substrate, OD 405 nm; type: biochemical, human; details: Sephacryl S-300 fractions of LTR plasma, 37° C. (FIG. 4)

Cleavage of the substrate by C1s, in words [2]	Cleavage of the substrate by β-FXIIa, in words [3]	Cleavage of the substrate by tissue kallikrein, in words [4]	Cleavage of the substrate by plasmin, in words [5]	Cleavage of the substrate by plasma kallikrein, in words [7]	% Residual activity, Thrombin ([1]; Table 2, thrombin 100 nM, substrate AGLTR-pNA, 60 min at 4° C. with LBTI 1 mg/ml, SBTI I mg/ml, aprotinin 0.075 mg/ml, benzamidine 50 mM or Futhan 0.1 mg/ml) [%]	% Residual activity, β-FXIIa ([3]; Table 2, β-FXIIa 100 nM, substrate AGLTR-pNA, 60 min at 4° C. with LBTI 1 mg/ml, SBTI I mg/ml, aprotinin 0.075 mg/ml, benzamidine 50 mM or Futhan 0.1 mg/ml) [%]	% Residual activity, C1s [9] [%]	% Residual activity, Trypsin [10] [%]	% Residual activity, LTR 1 ([11]; LTR 1 EDTA plasma diluted 10 or 20-fold) [%]	% Residual activity, LTR 2 ([11]; LTR 2 EDTA plasma diluted 10 or 20-fold) [%]	% Residual activity, LTR 3 ([11]; LTR 3 EDTA plasma diluted 10 or 20-fold) [%]	% Residual activity, Plasma Kallikrein ([7]; Table 2, plasma kallikrein 20 nM, substrate AGLTR-pNA, 60 min at 4° C. with LBTI 1 mg/ml, SBTI I mg/ml, aprotinin 0.075 mg/ml, benzamidine 50 mM or Futhan 0.1 mg/ml) [%]	% Residual activity, Plasmin [12] [%]	Molecule	Cleavage of the substrate by thrombin, in words [1]	Cleavage of the substrate by trypsin, in words [6]	Inhibition of all of the enzymes examined, in words [8]	Rate of conversion of the substrate by gel filtered LTR plasma, relative to AGLTR-pNA, in words [13]
–	–	–	–	–	1.6	10.9	6.6	5.8	0.5	−0.3	1.5	2.0	3.9	N=C(N)c1ccccc1 [Benzamidine, benzamidine]	–	–	very efficient inhibitors for all of the enzymes examined	–
least active on these substrates	least active on these substrates	least active on these substrates	least active on these substrates	cleaved S2302 more rapidly than S2288	–	–	–	–	–	–	–	–	–	[dI]-Pro-Arg-pNA [S2288]	cleaved substrate S2288 more efficiently than S2302; also recorded: preferred S2288 over either AGLTR-pNA or S2302	cleaved substrate S2288 more efficiently than S2302	–	somewhat greater than that using AGLTR-pNA
least active on these substrates	least active on these substrates	least active on these substrates	least active on these substrates	cleaved S2302 more rapidly than S2288	–	–	–	–	–	–	–	–	–	[dP]-Phe-Arg-pNA [S2302]	cleaved substrate S2288 more efficiently than S2302	cleaved substrate S2288 more efficiently than S2302	–	somewhat greater than that using AGLTR-pNA

Molecule	Cleavage of the substrate by C1s, in words [2]	Cleavage of the substrate by β-FXIIa, in words [3]	Cleavage of the substrate by tissue kallikrein, in words [4]	Cleavage of the substrate by plasmin, in words [5]	Cleavage of the substrate by plasma kallikrein, in words [7]	% Residual activity, Thrombin ([1]; Table 2, thrombin 100 nM, substrate AGLTR-pNA, 60 min at 4° C. with LBTI 1 mg/ml, SBTI I mg/ml, aprotinin 0.075 mg/ml, benzamidine 50 mM or Futhan 0.1 mg/ml) [%]	% Residual activity, β-FXIIa ([3]; Table 2, β-FXIIa 100 nM, substrate AGLTR-pNA, 60 min at 4° C. with LBTI 1 mg/ml, SBTI I mg/ml, aprotinin 0.075 mg/ml, benzamidine 50 mM or Futhan 0.1 mg/ml) [%]	% Residual activity, C1s [9] [%]	% Residual activity, Trypsin [10] [%]	% Residual activity, LTR 1 ([11]; LTR 1 EDTA plasma diluted 10 or 20-fold) [%]	% Residual activity, LTR 2 ([11]; LTR 2 EDTA plasma diluted 10 or 20-fold) [%]	% Residual activity, LTR 3 ([11]; LTR 3 EDTA plasma diluted 10 or 20-fold) [%]	% Residual activity, Plasma Kallikrein ([7]; Table 2, plasma kallikrein 20 nM, substrate AGLTR-pNA, 60 min at 4° C. with LBTI 1 mg/ml, SBTI I mg/ml, aprotinin 0.075 mg/ml, benzamidine 50 mM or Futhan 0.1 mg/ml) [%]	% Residual activity, Plasmin [12] [%]	Cleavage of the substrate by thrombin, in words [1]	Cleavage of the substrate by trypsin, in words [6]	Inhibition of all of the enzymes examined, in words [8]	Rate of conversion of the substrate by gel filtered LTR plasma, relative to AGLTR-pNA, in words [13]
Ac-Ala-Gly-Leu-Thr-Arg-p-nitroanilide (Ac-AGLTR-pNA; SMILES CC(=O)N[C@@H](C)C(=O)NCC(=O)N[C@@H](CC(C)C)C(=O)N[C@H](C(=O)N[C@@H](CCCNC(=N)N)C(=O)Nc1ccc([N+](=O)[O-])cc1)[C@@H](C)O)	almost no ability to cleave this substrate; also recorded: neither C1s nor any of the other proteinases efficiently cleaved this substrate	almost no ability to cleave this substrate	almost no ability to cleave this substrate	poorly cleaved	cleaved AGLTR-pNA relatively efficiently	–	–	–	–	–	–	–	–	–	poorly cleaved	cleaved AGLTR-pNA relatively efficiently	–	–
